According to publication PMC5218480 (PLoS ONE, 2017):

System: MV-4-11 cells
Assay: Gene expression microarray analysis (Affymetrix PrimeView) and GSEA
Format: cell-based, human
Set-up: RFU PODN (11730768_x_at) / Fold change /veh PODN (11730768_x_at) / RFU LINC00158 (11744669_a_at) / Fold change /veh LINC00158 (11744669_a_at) / RFU DUSP10 (11751237_a_at) / Fold change /veh DUSP10 (11751237_a_at) / RFU ID3 (11757404_x_at) / Fold change /veh ID3 (11757404_x_at) / RFU PLEKHG5 (11737974_s_at) / Fold change /veh PLEKHG5 (11737974_s_at) / RFU LRRC4B (11730491_at) / Fold change /veh LRRC4B (11730491_at) / RFU GIMAP4 (11747438_a_at) / Fold change /veh GIMAP4 (11747438_a_at) / RFU KRT8 (11758183_x_at) / Fold change /veh KRT8 (11758183_x_at) / RFU CNN1 (11734310_a_at) / Fold change /veh CNN1 (11734310_a_at) / RFU VPS37D (11726825_at) / Fold change /veh VPS37D (11726825_at) / RFU C10orf10 (11716522_x_at) / Fold change /veh C10orf10 (11716522_x_at) / RFU KIR2DL2 /// KIR2DL4 /// KIR2DL5A /// KIR2DL5B /// KIR2DS1 /// KIR2DS2 /// KIR2DS3 /// KIR2DS4 /// KIR3DL3 /// KIR3DL3 /// KIR3DS1 (11738374_at) / Fold change /veh KIR2DL2 /// KIR2DL4 /// KIR2DL5A /// KIR2DL5B /// KIR2DS1 /// KIR2DS2 /// KIR2DS3 /// KIR2DS4 /// KIR3DL3 /// KIR3DL3 /// KIR3DS1 (11738374_at) / RFU C1QL1 (11718748_at) / Fold change /veh C1QL1 (11718748_at) / RFU TMPRSS4 (11747572_a_at) / Fold change /veh TMPRSS4 (11747572_a_at) / RFU HAMP (11756126_x_at) / Fold change /veh HAMP (11756126_x_at) / RFU RNFT2 (11725882_a_at) / Fold change /veh RNFT2 (11725882_a_at) / RFU NR4A2 (11747474_a_at) / Fold change /veh NR4A2 (11747474_a_at) / RFU ABCC12 (11746883_a_at) / Fold change /veh ABCC12 (11746883_a_at) / RFU TMEM136 (11760407_x_at) / Fold change /veh TMEM136 (11760407_x_at) / RFU CLDN22 /// WWC2 (11732394_at) / Fold change /veh CLDN22 /// WWC2 (11732394_at) / RFU HLA-DPB1 (11760878_x_at) / Fold change /veh HLA-DPB1 (11760878_x_at) / RFU SPINT1 (11716480_a_at) / Fold change /veh SPINT1 (11716480_a_at) / RFU GAP43 (11754022_s_at) / Fold change /veh GAP43 (11754022_s_at) / RFU A4GNT (11735810_at) / Fold change /veh A4GNT (11735810_at) / RFU PRB3 (11715151_x_at) / Fold change /veh PRB3 (11715151_x_at) / RFU TUBB4B (11761932_at) / Fold change /veh TUBB4B (11761932_at) / RFU CAPN14 (11732068_a_at) / Fold change /veh CAPN14 (11732068_a_at) / RFU TMCC2 (11721928_a_at) / Fold change /veh TMCC2 (11721928_a_at) / RFU IRGQ (11745062_a_at) / Fold change /veh IRGQ (11745062_a_at) / RFU FAM174B (11720279_a_at) / Fold change /veh FAM174B (11720279_a_at) / RFU TMPRSS4 (11748680_a_at) / Fold change /veh TMPRSS4 (11748680_a_at) / RFU FAM212B (11763350_a_at) / Fold change /veh FAM212B (11763350_a_at) / RFU PLEKHG5 (11743358_a_at) / Fold change /veh PLEKHG5 (11743358_a_at) / RFU ZSCAN30 (11745921_a_at) / Fold change /veh ZSCAN30 (11745921_a_at) / RFU CMKLR1 (11741424_a_at) / Fold change /veh CMKLR1 (11741424_a_at) / RFU LOC101060620 /// MAPK8IP1 (11723275_at) / Fold change /veh LOC101060620 /// MAPK8IP1 (11723275_at) / RFU SPTSSB (11747773_x_at) / Fold change /veh SPTSSB (11747773_x_at) / RFU PRSS12 (11739890_at) / Fold change /veh PRSS12 (11739890_at) / RFU BIN1 (11741810_x_at) / Fold change /veh BIN1 (11741810_x_at) / RFU WNT11 (11732464_a_at) / Fold change /veh WNT11 (11732464_a_at) / RFU C10orf10 (11716521_a_at) / Fold change /veh C10orf10 (11716521_a_at) / RFU C5orf56 (11738089_at) / Fold change /veh C5orf56 (11738089_at) / RFU CYB561 (11721691_x_at) / Fold change /veh CYB561 (11721691_x_at) / RFU ANKRD19P (11752326_a_at) / Fold change /veh ANKRD19P (11752326_a_at) / RFU OR2T12 /// OR2T33 /// OR2T8 (11738714_s_at) / Fold change /veh OR2T12 /// OR2T33 /// OR2T8 (11738714_s_at) / RFU VCAN (11748164_a_at) / Fold change /veh VCAN (11748164_a_at) / RFU JSRP1 (11732532_at) / Fold change /veh JSRP1 (11732532_at) / RFU KRTAP10-11 (11738290_x_at) / Fold change /veh KRTAP10-11 (11738290_x_at) / RFU MYO3A (11730013_a_at) / Fold change /veh MYO3A (11730013_a_at) / RFU EBF3 (11725865_a_at) / Fold change /veh EBF3 (11725865_a_at) / RFU CAMK2N1 (11719241_x_at) / Fold change /veh CAMK2N1 (11719241_x_at) / RFU C5orf56 (11738088_a_at) / Fold change /veh C5orf56 (11738088_a_at) / RFU OLFML3 (11715873_a_at) / Fold change /veh OLFML3 (11715873_a_at) / RFU LOC100653217 /// NTM (11731650_a_at) / Fold change /veh LOC100653217 /// NTM (11731650_a_at) / RFU MAPK11 (11762145_a_at) / Fold change /veh MAPK11 (11762145_a_at) / RFU FIZ1 (11724087_x_at) / Fold change /veh FIZ1 (11724087_x_at) / RFU OASL (11726364_x_at) / Fold change /veh OASL (11726364_x_at) / RFU SOX15 (11748057_x_at) / Fold change /veh SOX15 (11748057_x_at) / RFU CD79A (11719716_a_at) / Fold change /veh CD79A (11719716_a_at) / RFU HIST1H1D (11736915_at) / Fold change /veh HIST1H1D (11736915_at) / RFU CASKIN2 (11723855_a_at) / Fold change /veh CASKIN2 (11723855_a_at) / RFU LOC730098 (11760151_x_at) / Fold change /veh LOC730098 (11760151_x_at) / RFU OR4N2 (11742367_at) / Fold change /veh OR4N2 (11742367_at) / RFU PRRT2 (11749266_a_at) / Fold change /veh PRRT2 (11749266_a_at) / RFU SNX32 (11753110_a_at) / Fold change /veh SNX32 (11753110_a_at) / RFU CDHR5 (11726645_a_at) / Fold change /veh CDHR5 (11726645_a_at) / RFU RCAN1 (11760418_a_at) / Fold change /veh RCAN1 (11760418_a_at) / RFU FAM167A (11723789_a_at) / Fold change /veh FAM167A (11723789_a_at) / RFU FAM26E (11764081_at) / Fold change /veh FAM26E (11764081_at) / RFU ISYNA1 (11749810_s_at) / Fold change /veh ISYNA1 (11749810_s_at) / RFU ACY1 (11761880_at) / Fold change /veh ACY1 (11761880_at) / RFU 11764098_at / Fold change /veh 11764098_at / RFU SAMD14 (11745864_x_at) / Fold change /veh SAMD14 (11745864_x_at) / RFU NPB (11741838_a_at) / Fold change /veh NPB (11741838_a_at) / RFU TMPRSS6 (11731388_a_at) / Fold change /veh TMPRSS6 (11731388_a_at) / RFU KRTAP10-2 (11738614_at) / Fold change /veh KRTAP10-2 (11738614_at) / RFU ARHGAP8 /// PRR5-ARHGAP8 (11727945_x_at) / Fold change /veh ARHGAP8 /// PRR5-ARHGAP8 (11727945_x_at) / RFU KRTAP5-7 /// NADSYN1 (11734609_at) / Fold change /veh KRTAP5-7 /// NADSYN1 (11734609_at) / RFU RASL12 (11751679_a_at) / Fold change /veh RASL12 (11751679_a_at) / RFU CDKN2B (11736163_a_at) / Fold change /veh CDKN2B (11736163_a_at) / RFU PRF1 (11729649_at) / Fold change /veh PRF1 (11729649_at) / RFU, ZNF638 /// ZNF638-IT1 / Fold change vs veh, ZNF638 /// ZNF638-IT1 / RFU, PANK3 / Fold change vs veh, PANK3 / RFU, SH3YL1 / Fold change vs veh, SH3YL1 / RFU, ZEB2 / Fold change vs veh, ZEB2 / RFU, NRIP1 / Fold change vs veh, NRIP1 / RFU, PTTG1IP / Fold change vs veh, PTTG1IP / RFU, CAPN2 / Fold change vs veh, CAPN2 / RFU, MED14 / Fold change vs veh, MED14 / RFU, SNORA58 / Fold change vs veh, SNORA58 / RFU, C1orf63 / Fold change vs veh, C1orf63 / RFU, LRRFIP1 / Fold change vs veh, LRRFIP1 / RFU, NDUFAF7 / Fold change vs veh, NDUFAF7 / RFU, SLC12A2 / Fold change vs veh, SLC12A2 / RFU, IBTK / Fold change vs veh, IBTK / RFU, ESF1 / Fold change vs veh, ESF1 / Fold change vs veh, TMEM50B / RFU, TAOK1 / Fold change vs veh, TAOK1 / RFU, ACBD3 / Fold change vs veh, ACBD3 / RFU, TMA16 / Fold change vs veh, TMA16 / RFU, RWDD3 / Fold change vs veh, RWDD3 / RFU, BCAT1 / Fold change vs veh, BCAT1 / RFU, EDEM3 / Fold change vs veh, EDEM3 / RFU, TMEM33 / Fold change vs veh, TMEM33 / RFU, WDR75 / Fold change vs veh, WDR75 / RFU, AHCTF1 / Fold change vs veh, AHCTF1 / RFU, TFRC / Fold change vs veh, TFRC / RFU, ZDHHC17 / Fold change vs veh, ZDHHC17 / RFU, NOM1 / Fold change vs veh, NOM1 / RFU, ARL8B / Fold change vs veh, ARL8B / RFU, ZBTB11 / Fold change vs veh, ZBTB11 / RFU, TAMM41 / Fold change vs veh, TAMM41 / RFU, KIAA1704 /// LOC100996395 / Fold change vs veh, KIAA1704 /// LOC100996395 / RFU, ING1 / Fold change vs veh, ING1 / RFU, TRMT61B / Fold change vs veh, TRMT61B / RFU, FUBP3 / Fold change vs veh, FUBP3 / RFU, TP53 / Fold change vs veh, TP53 / RFU, TNKS2 / Fold change vs veh, TNKS2 / RFU, ZFP14 / Fold change vs veh, ZFP14 / RFU, ACTR2 / Fold change vs veh, ACTR2 / RFU, PPP3R1 / Fold change vs veh, PPP3R1 / RFU, PIK3R1 / Fold change vs veh, PIK3R1 / RFU, HNRNPA1 / Fold change vs veh, HNRNPA1 / RFU, RNF170 / Fold change vs veh, RNF170 / RFU, ZNF28 / Fold change vs veh, ZNF28 / RFU, RNGTT / Fold change vs veh, RNGTT / RFU, OGT / Fold change vs veh, OGT / RFU, BRD1 / Fold change vs veh, BRD1 / RFU, MARS / Fold change vs veh, MARS / RFU, ZNF655 / Fold change vs veh, ZNF655 / RFU, FAHD1 / Fold change vs veh, FAHD1 / RFU, BDP1 / Fold change vs veh, BDP1 / RFU, LRRCC1 / Fold change vs veh, LRRCC1 / RFU, ARID1A / Fold change vs veh, ARID1A / RFU, ZNF146 / Fold change vs veh, ZNF146 / RFU, ZNF330 / Fold change vs veh, ZNF330 / RFU, GPN3 / Fold change vs veh, GPN3 / RFU, C9orf123 / Fold change vs veh, C9orf123 / RFU, N4BP2L2 / Fold change vs veh, N4BP2L2 / RFU, ARFIP1 / Fold change vs veh, ARFIP1 / RFU, FAM179B / Fold change vs veh, FAM179B / RFU, BCL10 / Fold change vs veh, BCL10 / RFU, UHRF1BP1L / Fold change vs veh, UHRF1BP1L / RFU, BET1 / Fold change vs veh, BET1 / RFU, CNOT2 / Fold change vs veh, CNOT2 / RFU, ZNF268 / Fold change vs veh, ZNF268 / Fold change vs veh, ZNF507 / RFU, DGCR2 / Fold change vs veh, DGCR2 / RFU, WDSUB1 / Fold change vs veh, WDSUB1 / Fold change vs veh, HSP90B1 /// MIR3652 / RFU, ADSS / Fold change vs veh, ADSS / RFU, GK / Fold change vs veh, GK / RFU, ZNF148 / Fold change vs veh, ZNF148 / RFU, TAF9 / Fold change vs veh, TAF9 / RFU, SLC1A5 / Fold change vs veh, SLC1A5 / RFU, SLMO2 / Fold change vs veh, SLMO2 / RFU, ABCC4 / Fold change vs veh, ABCC4 / RFU, LOC101060439 /// RAP1B / Fold change vs veh, LOC101060439 /// RAP1B / RFU, RFX7 / Fold change vs veh, RFX7 / RFU, GTPBP10 / Fold change vs veh, GTPBP10 / RFU, CNEP1R1 / Fold change vs veh, CNEP1R1 / RFU, BIVM-ERCC5 /// ERCC5 / Fold change vs veh, BIVM-ERCC5 /// ERCC5 / RFU, ILF3 / Fold change vs veh, ILF3 / RFU 11762660_at / Fold change /veh 11762660_at / RFU VCAN (11757783_s_at) / Fold change /veh VCAN (11757783_s_at) / RFU DDX43 (11728927_at) / Fold change /veh DDX43 (11728927_at) / RFU KRT8 (11758188_x_at) / Fold change /veh KRT8 (11758188_x_at) / RFU NKD1 (11759106_at) / Fold change /veh NKD1 (11759106_at) / RFU SRD5A1 (11742802_a_at) / Fold change /veh SRD5A1 (11742802_a_at) / RFU TPSAB1 /// TPSB2 (11721975_s_at) / Fold change /veh TPSAB1 /// TPSB2 (11721975_s_at) / RFU GSTM3 (11746129_a_at) / Fold change /veh GSTM3 (11746129_a_at) / RFU IL23R (11737362_x_at) / Fold change /veh IL23R (11737362_x_at) / RFU TMEM51 (11727254_a_at) / Fold change /veh TMEM51 (11727254_a_at) / RFU PIWIL2 (11732686_x_at) / Fold change /veh PIWIL2 (11732686_x_at) / RFU ORM1 (11744905_x_at) / Fold change /veh ORM1 (11744905_x_at) / RFU CCDC152 (11743942_at) / Fold change /veh CCDC152 (11743942_at) / RFU ECM1 (11717891_a_at) / Fold change /veh ECM1 (11717891_a_at) / RFU IL23R (11748794_a_at) / Fold change /veh IL23R (11748794_a_at) / RFU TNFAIP8L3 (11732012_x_at) / Fold change /veh TNFAIP8L3 (11732012_x_at) / RFU MBOAT4 (11741988_at) / Fold change /veh MBOAT4 (11741988_at) / RFU 11764193_at / Fold change /veh 11764193_at / RFU TMEM53 (11763286_at) / Fold change /veh TMEM53 (11763286_at) / RFU MAGEB2 (11727129_at) / Fold change /veh MAGEB2 (11727129_at) / RFU TMEM200A (11744735_a_at) / Fold change /veh TMEM200A (11744735_a_at) / RFU CCDC152 (11751479_a_at) / Fold change /veh CCDC152 (11751479_a_at) / RFU FAM211A (11726209_a_at) / Fold change /veh FAM211A (11726209_a_at) / RFU RGS16 (11746705_a_at) / Fold change /veh RGS16 (11746705_a_at) / RFU VCAN (11755009_s_at) / Fold change /veh VCAN (11755009_s_at) / RFU RHOB (11743442_s_at) / Fold change /veh RHOB (11743442_s_at) / RFU RGS16 (11720943_a_at) / Fold change /veh RGS16 (11720943_a_at) / RFU RGS16 (11720944_at) / Fold change /veh RGS16 (11720944_at) / RFU, VPS4B / Fold change vs veh, VPS4B / RFU, CREB1 / Fold change vs veh, CREB1 / RFU, DNAJC13 / Fold change vs veh, DNAJC13 / RFU, GNAQ / Fold change vs veh, GNAQ / RFU, CDK5R1 / Fold change vs veh, CDK5R1 / RFU, ZRANB3 / Fold change vs veh, ZRANB3 / RFU, CUL4A / Fold change vs veh, CUL4A / RFU, CCNY / Fold change vs veh, CCNY / RFU, UFL1 / Fold change vs veh, UFL1 / RFU, COG3 / Fold change vs veh, COG3 / RFU, DIAPH2 / Fold change vs veh, DIAPH2 / RFU, SKA2 / Fold change vs veh, SKA2 / RFU, AFF3 / Fold change vs veh, AFF3 / RFU, LMF1 / Fold change vs veh, LMF1 / RFU, IPO11 / Fold change vs veh, IPO11 / RFU, DFFB / Fold change vs veh, DFFB / RFU, FOXP1 / Fold change vs veh, FOXP1 / RFU, CARD8 / Fold change vs veh, CARD8 / RFU, STRN3 / Fold change vs veh, STRN3 / RFU, ADK / Fold change vs veh, ADK / RFU, RASSF2 / Fold change vs veh, RASSF2 / RFU, WIPF1 / Fold change vs veh, WIPF1 / RFU, LARP1B / Fold change vs veh, LARP1B / RFU, RASA1 / Fold change vs veh, RASA1 / RFU, RB1 / Fold change vs veh, RB1 / RFU, PPFIA1 / Fold change vs veh, PPFIA1 / RFU, MAT2A / Fold change vs veh, MAT2A / RFU, CCT5 / Fold change vs veh, CCT5 / RFU, WDR92 / Fold change vs veh, WDR92 / RFU, CUX1 / Fold change vs veh, CUX1 / RFU, TTC7A / Fold change vs veh, TTC7A / RFU, TMEM135 / Fold change vs veh, TMEM135 / RFU, DEPTOR / Fold change vs veh, DEPTOR / RFU, CPM / Fold change vs veh, CPM / RFU, DNAJB6 / Fold change vs veh, DNAJB6 / RFU, CACNA2D3 / Fold change vs veh, CACNA2D3 / RFU, DTX4 / Fold change vs veh, DTX4 / RFU, TFCP2 / Fold change vs veh, TFCP2 / RFU, GMCL1 /// GMCL1P1 / Fold change vs veh, GMCL1 /// GMCL1P1 / RFU, AEBP2 / Fold change vs veh, AEBP2 / RFU, SNHG1 /// SNORD22 /// SNORD25 /// SNORD26 /// SNORD27 /// SNORD28 /// SNORD29 /// SNORD31 / Fold change vs veh, SNHG1 /// SNORD22 /// SNORD25 /// SNORD26 /// SNORD27 /// SNORD28 /// SNORD29 /// SNORD31 / Fold change (Aza/veh), C12orf56 (ProbeSet 11735607_a_at) / Fold change (ACY-1035/veh), C12orf56 (ProbeSet 11735607_a_at) / Fold change (Aza/veh), FGFR1OP (ProbeSet 11751329_s_at) / Fold change (ACY-1035/veh), FGFR1OP (ProbeSet 11751329_s_at) / Fold change (Aza/veh), VPS36 (ProbeSet 11739960_a_at) / Fold change (ACY-1035/veh), VPS36 (ProbeSet 11739960_a_at) / RFU SYPL1 (11715823_x_at) / Fold change /veh SYPL1 (11715823_x_at) / RFU IGFBP7 (11715501_s_at) / Fold change /veh IGFBP7 (11715501_s_at) / RFU REEP3 (11722064_at) / Fold change /veh REEP3 (11722064_at) / RFU IGLL1 (11728026_x_at) / Fold change /veh IGLL1 (11728026_x_at): dose or concentration left out as unconfirmed
Conditions: ProbeSet 11747889_x_at; LIST B

Nc1ccc(-c2cccs2)cc1NC(=O)c1ccc2c(c1)cc(C1CC1)n2CCN1CCOCC1 [ACY-1035]
Fold change vs veh, SH3YL1: 0.99
